Earlier results on 1 substance are cited in patent publication US7244749B2, “Compositions and methods for lowering plasma lipoprotein(a) and risk factors of cardiovascular diseases” (priority 2000, dated 2007).

This data set deals with plasma Lp(a). Particulars: males with prostatic cancer.

On to Estrogen, for which the “reduction of plasma Lp(a)” value is on record as 50%.
